According to PubChem BioAssay (NCI):
Where “and” joins values, the source holds several entries; their conditions need not be identical. Equal entries are not always repeated.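 A five-concentration, 48-hour dose response in 96-well plates underlies each endpoint, interpolated linearly between surrounding concentrations. GI50 = concentration required for 50% inhibition of growth. TGI: total growth inhibition.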

Key:
Assay in all cases: DTP human tumour cell line panel, 48 h
[1] = system: A549 NSCLC
[2] = system: M14 melanoma
[3] = system: NCI-H460 lung
[4] = system: OVCAR-4 ovarian
[5] = system: SK-MEL-28 melanoma
[6] = system: UACC-257 melanoma
[7] = system: HOP-92 NSCLC
[8] = system: DU-145 prostate
[9] = system: PC-3 prostate
[10] = system: NCI/ADR-RES ovarian

SMILES | TGI [1] [µM] | TGI [2] [µM] | TGI [3] [µM] | TGI [4] [µM] | TGI [5] [µM] | TGI [6] [µM] | TGI [7] [µM] | GI50 [1] [µM] | GI50 [8] [µM] | TGI [8] [µM] | GI50 [7] [µM] | GI50 [2] [µM] | GI50 [3] [µM] | GI50 [4] [µM] | GI50 [9] | TGI [9] [µM] | GI50 [5] [µM] | GI50 [6] [µM] | TGI [10] [µM] | GI50 [10] [µM]
COc1ccc(OC(C)C(=O)O)c2c(=O)ccccc12 (configuration not stated) | > 100 | > 100 | > 100 | > 100 | > 100 | > 100 | – | – | – | – | – | – | – | – | – | – | – | – | – | –
O/N=C/c1ccc(O)c(O)c1 | > 100 | > 100 | > 100 | > 100 | > 100 | > 100 | > 100 | – | – | – | – | – | – | – | – | – | – | – | – | –
CC1SC(c2ccc(Cl)cc2Cl)N(NC(=O)C(O)c2ccccc2)C1=O (configuration not stated) | > 100 | > 100 | > 100 | 98.5 | > 100 | > 100 | > 100 | 33.9 | > 100 | > 100 | 35.9 | 42.9 | 47.7 | 28.5 | 42.3 µM | > 100 | 76.1 | 61.7 | – | –
CC(=O)[CH-]C(=O)c1ccccc1.CC(=O)[CH-]C(=O)c1ccccc1.[O-]c1ccc2c(c1)OCO2.[O-]c1ccc2c(c1)OCO2.[Ti+4] | > 100 | 44.4 | 72.6 | > 100 | > 100 | > 100 | > 100 | 41.7 | – | – | 21.1 | 20.2 | 21.1 | 31.8 | – | – | 32.7 | 44 | – | –
CCC(CO)Nc1nc2c(c(=O)n(C)c(=O)n2C)n1CCO (configuration not stated) | > 100 | – | – | – | > 100 | > 100 | > 100 | – | – | – | – | – | – | – | – | – | – | – | – | –
Nc1ccc(/C=C/c2ccc3cccnc3c2)cc1 | > 100 | > 100 | > 100 | – | > 100 | > 100 | > 100 | – | – | > 100 | – | – | – | – | – | > 100 | – | – | > 100 | –
O=C1Nc2cc(F)ccc2C1=O | > 100 | > 100 | > 100 | > 100 | > 100 | > 100 | > 100 | – | – | – | – | – | – | – | – | – | – | – | – | –
CC(=O)Oc1ccc2c(c1)C(=O)c1nc(C)c(C)nc1C2=O | > 100 | > 100 | > 90.1 | > 89 | > 100 | > 66.4 | > 100 | – | – | – | – | – | – | – | – | – | – | – | – | –
CCCCN(CCCC)CC(C(C)=O)C(c1ccccc1)c1c(O)c2ccccc2oc1=O (configuration not stated) | > 100 | > 100 | > 100 | > 100 | > 100 | > 100 | > 100 | – | – | – | – | – | – | – | – | – | – | – | – | –
C1=CCCC=CCC1.C[PH+](C)C.C[PH+](C)C.C[PH+](C)C.[Cl-].[Ir] | > 100 | > 100 | > 100 | > 100 | > 100 | 59.1 | 98.8 | 80.1 | – | – | 28.6 | > 100 | 77.9 | 67.8 | – | – | 46.6 | 23.2 | – | –
O=C1N=C(Nc2nc(-c3csc(NC4=NC(=O)/C(=C\c5ccccc5)S4)n3)cs2)S/C1=C/c1ccccc1 | > 50 | 32.3 | > 50 | – | > 50 | 28.1 | 20.5 | 16.3 | 16.8 | > 50 | 4.37 | 4.63 | 12.8 | – | 8.98 µM | 42.7 | > 50 | 12.2 | > 50 | 15.9
O=c1c2cc3ccccc3n2c(=O)c2cc3ccccc3n12 | > 100 | > 100 | > 100 | > 100 | > 100 | > 100 | > 100 | – | – | – | – | – | – | – | – | – | – | – | – | –
COC(=O)[C@H](Cc1cn(C)cn1)NC(=O)[C@H](Cc1ccccc1)NC(=O)Nc1cc(C(F)(F)F)cc(C(F)(F)F)c1 | 31.6 | 28.5 | 29.7 | 28.5 | 35.2 | 30.1 | – | 16.1 | 13.8 | 27 | – | 13.5 | 14.2 | 13.8 | 9.17 µM and 12.4 µM | 25.8 | 17.9 | 16.1 | 61.4 | 23.9
c1ccc(OC2=NC3=S(S2)SC(Oc2ccccc2)=N3)cc1 | 47.6 | 34.8 | > 100 | – | – | 34.7 | – | – | – | – | – | – | – | – | – | – | – | – | – | –
COc1cc(/C=C2\CCCC3=C2N=C2SC(C)=NN2C3c2cc(OC)c(OC)c(OC)c2)cc(OC)c1OC (configuration not stated) | > 100 | – | – | – | – | > 100 | > 100 | > 100 | – | – | > 100 | – | – | – | > 100 µM | > 100 | – | > 100 | – | –
COc1cc2cnc3c4cc(OCc5ccccc5)ccc4ccc3c2cc1OC | > 100 | > 100 | > 100 | 39.8 | > 100 | > 100 | > 100 | – | – | – | – | – | – | – | – | – | – | – | – | –
CO/N=C(\COc1ccc2oc(-c3ccccc3)cc(=O)c2c1)c1ccc(F)cc1 | 48.7 | > 100 | – | 55.8 | > 100 | 46.7 | – | 20 | 25 | 76.5 | – | 32.2 | – | 22.3 | 22.6 µM | 57.3 | 48.2 | 20.8 | 49.9 | 21
O=C1NC2C(O)CCCCC2C12CCCCC2 (configuration not stated) | > 100 | > 100 | > 100 | > 100 | > 100 | > 100 | > 100 | – | – | – | – | – | – | – | – | – | – | – | – | –
C[CH2][Sn]([CH2]C)([O]C(=O)c1ccc(F)cc1)[O]C(=O)c1ccc(F)cc1 | > 100 | 33.4 | > 100 | > 100 | 34.8 | 41 | 26 | > 100 | – | – | 12.7 | 17.5 | > 100 | 52.4 | – | – | 18.6 | 19.7 | – | –
